{
  "source": "patent US20240238310A1",
  "about": "“MODULATION OF SEX STEROID HORMONE PRODUCTION AND ACTIVITY FOR TREATING AND PREVENTING HERNIAS” (Northwestern University, priority 2020, published 2024)",
  "test_system": "Arom^hum mice",
  "assay": "Reversal of established scrotal hernias and LAMT fibrosis/atrophy in Arom^hum mice",
  "format": "in vivo, mouse",
  "description": "FIG. 16. […] Arom^hum mice with small to moderate size of hernias were treated with placebo or letrozole for 12 weeks. (A) Schematic diagram depicts the schedule of drug administration. (B) The area of scrotal hernia in Arom^hum mice. (C) Representative photomicrographs of Masson's trichrome-stained LAMT sections of WT and Arom^hum mice. Quantification of the percentage of connective tissue or fibrotic area (D) or myofiber area (E) in WT and Arom^hummice. 10 representative high-power fields were analyzed in each tissue. One-way ANOVA with Tukey's multiple comparison test, **p<0.01, ***p<0.001. Scale bars, […]. n=5 mice per group.\nFIG. 17. […] Arom^hum mice with small to moderate size of hernias were treated with placebo or letrozole for 3 weeks. (A) Schematic diagram depicts the schedule of drug administration. (B) The area of scrotal hernia in Arom^hum mice.\nFIG. 18. E2/ER antagonist fulvestrant reverses the large size of scrotal hernias and rescues LAMT fibrosis and myocyte atrophy in Arom^hum mice. Arom^hum mice with large size of hernias were treated with placebo or fulvestrant for 12 weeks. (A) Schematic diagram depicts the schedule of drug administration. (B) The area of scrotal hernia in Arom^hum mice. (C) Representative photomicrographs of Masson's trichrome-stained LAMT sections of WT and Arom^hum mice. Quantification of the percentage of connective tissue or fibrotic area (D) in WT and Arom^hum mice. 10 representative high-power fields were analyzed in each tissue. (E) Hydroxyproline content in LAMT of WT and Arom^hum mice treated with fulvestrant. One-way ANOVA with Tukey's multiple comparison test, ***p<0.001, ****p<0.0001. n=5 mice per group.\n(§1) FIG. 19. Aromatase inhibitor letrozole reverses the large size of scrotal hernias in Arom^hum mice. Arom^hum mice with large size of hernias were treated with placebo or letrozole for 12 weeks. (A) Schematic diagram depicts the schedule of drug administration. (B) The area of scrotal hernia in Arom^hum mice.\nas §1, with “20. E2/ER antagonist raloxifene” for “19. Aromatase inhibitor letrozole”, “raloxifene” for “letrozole”, “3” for “12”\nWe treated Arom^hum mice with letrozole for 12 weeks. […] Raloxifene is a selective estrogen receptor modulator (SERM) and is currently used to prevent and treat osteoporosis in postmenopausal women.\nWe treated Arom^hum mice with fulvestrant for 12 weeks when the hernia area was over 200 mm^2. Large hernias were completely disappeared after 3- to 4-week of fulvestrant administration. […] We measured the total amount of collagen (largely type I and III), a major component of ECM, through measuring the content of hydroxyproline(1).",
  "note": "“Also recorded” adds a separate entry of the source.",
  "data": [
    {"smiles": "C[C@]12CC[C@@H]3c4ccc(O)cc4C[C@@H](CCCCCCCCC[S+]([O-])CCCC(F)(F)C(F)(F)F)[C@H]3[C@@H]1CC[C@@H]2O", "note": "(some centres unmarked) [fulvestrant]", "values": [
      {"measurement": "myofiber atrophy / myofiber cross-section area", "setting": "Arom^hum mice with large hernias, fulvestrant 12 weeks, FIG. 18C", "value": "completely reversed myofiber atrophy; also recorded: increase in myofiber cross-section area"},
      {"measurement": "total collagen content in LAMT (hydroxyproline assay)", "setting": "Arom^hum mice with large hernias, fulvestrant 12 weeks, FIG. 18E", "value": "decreased to normal levels similar to WT mice"},
      {"measurement": "established fibrosis in the LAMT", "setting": "Arom^hum mice with large hernias, fulvestrant 12 weeks, FIGS. 18C and D", "value": "completely reversed with fulvestrant treatment; also recorded: decrease in muscle fibrosis"},
      {"measurement": "reversal of large and severe hernias (>200 mm^2)", "setting": "Arom^hum mice, fulvestrant alone for 12 weeks, started when hernia area was over 200 mm^2, FIG. 18", "value": "can reverse large and severe hernias"},
      {"measurement": "time of administration after which large hernias completely disappeared", "setting": "Arom^hum mice, hernia area over 200 mm^2", "value": "3- to 4 week"}
    ]}
  ]
}
